Measurements taken from patent US11932658B2 (BRISTOL-MYERS SQUIBB COMPANY, priority 2016, dated 2024).

Target: T1, PAR4 (Homo sapiens, UniProt Q96RI0)
T1 construct: expressed in transfected cells; host or cells: HEK293 PAR4 Clone 1.2A (BMS Arctic ID 383940)
T1 sequence (Q96RI0 18-385): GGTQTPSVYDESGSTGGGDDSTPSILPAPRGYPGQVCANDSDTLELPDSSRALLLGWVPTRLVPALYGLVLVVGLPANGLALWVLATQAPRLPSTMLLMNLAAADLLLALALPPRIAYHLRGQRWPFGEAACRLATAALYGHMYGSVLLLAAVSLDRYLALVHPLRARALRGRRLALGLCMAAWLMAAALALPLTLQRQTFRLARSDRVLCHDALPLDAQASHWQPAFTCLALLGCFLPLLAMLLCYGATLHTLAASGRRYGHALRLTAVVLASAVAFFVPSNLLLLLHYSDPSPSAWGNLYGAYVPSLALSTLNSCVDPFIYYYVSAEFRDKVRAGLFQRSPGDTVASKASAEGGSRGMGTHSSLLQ
Assay: PAR4 FLIPR assay (antagonism of agonist peptide-induced calcium mobilization)
Format: cell-based
Procedure, shortened: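 Antagonism was taken as block of calcium mobilization evoked by the agonist peptide H-Ala-Phe(4-F)-Pro-Gly-Trp-Leu-Val-Lys-Asn-[…]-NH2, added after 30 min room-temperature compound preincubation in dye-loaded PAR4-transfected HEK293 cells (endogenous PAR1). Fluorescence was read on FDSS, with compound addition alone used as the agonist counter-screen; values come from 11-point concentration-response curves.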

Row | IC50 [nM] | Compound
1 | 8.8 | COc1cnc2c(-c3nc4c(Cl)cc5c(c4s3)OC[C@H](COC(=O)Nc3cnc(Cl)nc3)O5)cc(C)cc2n1 [Example 58, (R)-(4-chloro-2-(2-methoxy-7-methylquinoxalin-5-yl)-7,8-dihydro-[1,4]dioxino[2′,3′:3,4]benzo[1,2-d]thiazol-7-yl)methyl (2-chloropyrimidin-5-yl)carbamate]
2 | 8.3 | COc1cnc2c(-c3nc4c(C)cc5c(c4s3)OC[C@H](COC(=O)Nc3cnc(Cl)nc3)O5)cc(C)cc2n1 [Example 59, (R)-(2-(2-methoxy-7-methylquinoxalin-5-yl)-4-methyl-7,8-dihydro-[1,4]dioxino[2′,3′:3,4]benzo[1,2-d]thiazol-7-yl)methyl (2-chloropyrimidin-5-yl)carbamate]
3 | 6.9 | COc1cnc2c(-c3nc4c(Cl)cc5c(c4s3)OC[C@H](COC(=O)Nc3cnc(C)c(C)c3)O5)cc(C)cc2n1 [Example 60, (R)-(4-chloro-2-(2-methoxy-7-methylquinoxalin-5-yl)-7,8-dihydro-[1,4]dioxino[2′,3′:3,4]benzo[1,2-d]thiazol-7-yl)methyl (5,6-dimethylpyridin-3-yl) carbamate]
4 | 23 | COc1cnc2c(-c3nc4c(C)cc5c(c4s3)OC[C@H](COC(=O)Nc3cnc(F)c(C)c3)O5)cc(C)cc2n1 [Example 61, (R)-(2-(2-methoxy-7-methylquinoxalin-5-yl)-4-methyl-7,8-dihydro-[1,4]dioxino [2′,3′:3,4]benzo[1,2-d]thiazol-7-yl)methyl (6-fluoro-5-methylpyridin-3-yl)carbamate]
5 | 1 | COc1cnc2c(-c3nc4c(Cl)cc5c(c4s3)OC[C@H](COC(=O)Nc3ccc(C)nc3)O5)cc(C)cc2n1 [Example 62]
6 | 4.3 | COc1cnc2c(-c3nc4c(Cl)cc5c(c4s3)OC[C@H](COC(=O)Nc3cncc(C)c3)O5)cc(C)cc2n1 [Example 63]
7 | 2.5 | COc1cnc2c(-c3nc4c(Cl)cc5c(c4s3)OC[C@H](COC(=O)Nc3cnc(F)c(C)c3)O5)cc(C)cc2n1 [Example 64, (R)-(4-chloro-2-(2-methoxy-7-methylquinoxalin-5-yl)-7,8-dihydro-[1,4]dioxino [2′,3′:3,4]benzo[1,2-d]thiazol-7-yl)methyl (6-fluoro-5-methylpyridin-3-yl)carbamate]
8 | 16 | COc1cnc2c(-c3nc4c(Cl)cc5c(c4s3)OC[C@H](COC(=O)Nc3ccc(N(C)C)nc3)O5)cc(C)cc2n1 [Example 65, (R)-(4-chloro-2-(2-methoxy-7-methylquinoxalin-5-yl)-7,8-dihydro-[1,4]dioxino [2′,3′:3,4]benzo[1,2-d]thiazol-7-yl)methyl (6-(dimethylamino)pyridin-3-yl)carbamate]
9 | 1.5 | COc1cnc2c(-c3nc4c(Cl)cc5c(c4s3)OC[C@H](COC(=O)Nc3ccc4[nH]c(=O)oc4c3)O5)cc(C)cc2n1 [Example 66, (R)-(4-chloro-2-(2-methoxy-7-methylquinoxalin-5-yl)-7,8-dihydro-[1,4]dioxino[2′,3′:3,4]benzo[1,2-d]thiazol-7-yl)methyl (2-oxo-2,3-dihydrobenzo[d]oxazol-6-yl)carbamate]
10 | 0.6 | COc1cnc2c(-c3nc4c(Cl)cc5c(c4s3)OC[C@H](COC(=O)Nc3cnc4c(c3)ncn4C)O5)cc(C)cc2n1 [Example 67, (R)-(4-chloro-2-(2-methoxy-7-methylquinoxalin-5-yl)-7,8-dihydro-[1,4]dioxino[2′,3′:3,4]benzo[1,2-d]thiazol-7-yl)methyl (3-methyl-3H-imidazo[4,5-b]pyridin-6-yl)carbamate]
11 | 1 | COc1ccc(NC(=O)OC[C@H]2COc3c(cc(F)c4nc(-c5cc(C)cc6nc(OC)cnc56)sc34)O2)cn1 [Example 68, (R)-(4-fluoro-2-(2-methoxy-7-methylquinoxalin-5-yl)-7,8-dihydro-[1,4]dioxino[2′,3′:3,4]benzo[1,2-d]thiazol-7-yl)methyl (6-methoxypyridin-3-yl)carbamate]
12 | 1.7 | COc1cnc2c(-c3nc4c(Cl)cc5c(c4s3)OC[C@H](COC(=O)Nc3ccc(-n4cnc(C)n4)nc3)O5)cc(C)cc2n1 [Example 69, (R)-(4-chloro-2-(2-methoxy-7-methylquinoxalin-5-yl)-7,8-dihydro-[1,4]dioxino[2′,3′:3,4]benzo[1,2-d]thiazol-7-yl)methyl (6-(3-methyl-1H-1,2,4-triazol-1-yl)pyridin-3-yl) carbamate]
13 | 25 | COc1cnc2c(-c3nc4c(F)cc5c(c4s3)OC[C@H](COC(=O)Nc3cccnc3)O5)cc(C)cc2n1 [Example 70, (R)-(4-fluoro-2-(2-methoxy-7-methylquinoxalin-5-yl)-7,8-dihydro-[1,4]dioxino[2′,3′:3,4]benzo[1,2-d]thiazol-7-yl)methyl pyridin-3-ylcarbamate]
14 | 2.9 | COc1cnc2c(-c3nc4c(F)cc5c(c4s3)OC[C@H](COC(=O)Nc3ccc(F)nc3)O5)cc(C)cc2n1 [Example 71, (R)-(4-fluoro-2-(2-methoxy-7-methylquinoxalin-5-yl)-7,8-dihydro-[1,4]dioxino[2′,3′:3,4]benzo[1,2-d]thiazol-7-yl)methyl (6-fluoropyridin-3-yl)carbamate]
15 | 7.7 | COc1cnc2c(-c3nc4c(F)cc5c(c4s3)OC[C@H](COC(=O)Nc3cccc(C#N)c3)O5)cc(C)cc2n1 [Example 72, (R)-(4-fluoro-2-(2-methoxy-7-methylquinoxalin-5-yl)-7,8-dihydro-[1,4]dioxino[2′,3′:3,4]benzo[1,2-d]thiazol-7-yl)methyl (3-cyanophenyl)carbamate]
16 | 12 | COc1cnc2c(-c3nc4c(F)cc5c(c4s3)OC[C@H](COC(=O)Nc3ccncc3)O5)cc(C)cc2n1 [Example 73, (R)-(4-fluoro-2-(2-methoxy-7-methylquinoxalin-5-yl)-7,8-dihydro-[1,4]dioxino[2′,3′:3,4]benzo[1,2-d]thiazol-7-yl)methyl pyridin-4-ylcarbamate]
17 | 8.6 | COc1cnc2c(-c3nc4c(C(F)F)cc5c(c4s3)OCC(COC(=O)Nc3ccnc(C)c3)O5)cc(C)cc2n1 (stereo not shown) [Example 74, (4-(difluoromethyl)-2-(2-methoxy-7-methylquinoxalin-5-yl)-7,8-dihydro-[1,4]dioxino[2′,3′:3,4]benzo[1,2-d]thiazol-7-yl)methyl (2-methylpyridin-4-yl)carbamate]
18 | 4.9 | COc1cnc2c(-c3nc4c(F)cc5c(c4s3)OC[C@H](COC(=O)Nc3ccnc(C)c3)O5)cc(C)cc2n1 [Example 75, (R)-(4-fluoro-2-(2-methoxy-7-methylquinoxalin-5-yl)-7,8-dihydro-[1,4]dioxino[2′,3′:3,4]benzo[1,2-d]thiazol-7-yl)methyl (2-methylpyridin-4-yl)carbamate]
19 | 2.7 | COc1cnc2c(-c3nc4c(F)cc5c(c4s3)OC[C@H](COC(=O)Nc3ccc(C)nc3)O5)cc(C)cc2n1 [Example 76, (R)-(4-fluoro-2-(2-methoxy-7-methylquinoxalin-5-yl)-7,8-dihydro-[1,4]dioxino[2′,3′:3,4]benzo[1,2-d]thiazol-7-yl)methyl (6-methylpyridin-3-yl)carbamate]
20 | 15 | COc1cnc2c(-c3nc4c(C)cc5c(c4s3)OCC(COC(=O)Nc3cncc(C(N)=O)c3)O5)cc(C)cc2n1 (stereo not shown) [Example 77, (2-(2-methoxy-7-methylquinoxalin-5-yl)-4-methyl-7,8-dihydro-[1,4]dioxino [2′,3′:3,4]benzo[1,2-d]thiazol-7-yl)methyl (5-carbamoylpyridin-3-yl)carbamate]
21 | 8.6 | COc1cnc2c(-c3nc4c(C)cc5c(c4s3)OCC(COC(=O)Nc3ccc4c(c3)C(=O)NCC4)O5)cc(C)cc2n1 (stereo not shown) [Example 78, (2-(2-methoxy-7-methylquinoxalin-5-yl)-4-methyl-7,8-dihydro-[1,4]dioxino[2′,3′:3,4]benzo[1,2-d]thiazol-7-yl)methyl (1-oxo-1,2,3,4-tetrahydroisoquinolin-7-yl)carbamate]
22 | 29 | COc1cnc2c(-c3nc4c(C)cc5c(c4s3)OCC(COC(=O)Nc3cnc(C)nc3)O5)cc(C)cc2n1 (stereo not shown) [Example 79, (2-(2-methoxy-7-methylquinoxalin-5-yl)-4-methyl-7,8-dihydro-[1,4]dioxino[2′,3′:3,4]benzo[1,2-d]thiazol-7-yl)methyl (2-methylpyrimidin-5-yl)carbamate]
23 | 33 | COc1cnc2c(-c3nc4c(C(F)F)cc5c(c4s3)OC[C@H](COC(=O)Nc3ccc(C)nc3)O5)cc(C)cc2n1 [Example 80, (R)-(4-(difluoromethyl)-2-(2-methoxy-7-methylquinoxalin-5-yl)-7,8-dihydro-[1,4]dioxino[2′,3′:3,4]benzo[1,2-d]thiazol-7-yl)methyl (6-methylpyridin-3-yl)carbamate]
24 | 39 | COc1ccc(NC(=O)OC[C@H]2COc3c(cc(C(F)F)c4nc(-c5cc(C)cc6nc(OC)cnc56)sc34)O2)cn1 [Example 81, (R)-(4-(difluoromethyl)-2-(2-methoxy-7-methylquinoxalin-5-yl)-7,8-dihydro-[1,4]dioxino[2′,3′:3,4]benzo[1,2-d]thiazol-7-yl)methyl (6-methoxypyridin-3-yl)carbamate]
25 | 55 | COc1cnc2c(-c3nc4c(C)cc5c(c4s3)OCC(COC(=O)Nc3ccc4ocnc4c3)O5)cc(C)cc2n1 (stereo not shown) [Example 82, (2-(2-methoxy-7-methylquinoxalin-5-yl)-4-methyl-7,8-dihydro-[1,4]dioxino[2′,3′:3,4]benzo[1,2-d]thiazol-7-yl)methyl benzo[d]oxazol-5-ylcarbamate]
